Where “and” joins values, the source holds several entries; their conditions need not be identical. Equal entries are not always repeated.
Target: T1, FOLR (Homo sapiens, UniProt P15328)
T1 construct: Target cells: IGROV1 cells (typically 1000-20,000 cells per well); endogenous in cells; host or cells: IGROV1 cells
Experiment: Antibody dependent cellular cytotoxicity (ADCC) reporter assay
Type: cell-based
Settings: IGROV1 target cells; anti-cotinine antibody (SEQ ID NO: 11/12, human IgG1 Fc S239D/I332E); Jurkat FcγRIIIa NFAT-luciferase reporter cells; about 12-18 hours; one value per experimental run; EC50 in molar (M); footnote: pEC50 < 5 = inactive
Procedure: An antibody dependent cellular cytotoxicity (ADCC) reporter assay was conducted using the following four assay components: (i) ARM compound of Formula (I) targeting FOLR (concentrations ranging from 1 pM to 10 μM); (ii) anti-cotinine antibody having a heavy chain sequence of SEQ ID NO: 11 and a light chain sequence of SEQ ID NO: 12 (rabbit variable region with human IgG1 Fc domain containing DE mutation (S239D/I332E)) (concentrations ranging from 0.01 μg/mL-200 μg/mL); (iii) Target cells: IGROV1 cells (typically 1000-20,000 cells per well); and (iv) Reporter cells—Jurkat cells engineered to express FcγRIIIa with a reporter gene luciferase under the control of the NFAT promoter (typically 3000-75,000 cells per well). Reagents were combined in final volume of 20 μL in 384-well tissue culture treated plate. […]
Luminescence signal was measured on a microplate reader capable of measuring luminescence and signal: background was calculated by dividing the signal of a test well by the signal obtained when no compound of formula (I) was included in the assay. […]
ARMs compounds of Formula (I) were tested for ADCC activity in the above assay in one or more experimental runs and the results are shown in Table 3 below. […] The pEC50 value is the negative log of the EC50 value, wherein the EC50 value is half maximal effective concentration measured in molar (M). […]

T1 sequence (P15328 25-234 limits assumed): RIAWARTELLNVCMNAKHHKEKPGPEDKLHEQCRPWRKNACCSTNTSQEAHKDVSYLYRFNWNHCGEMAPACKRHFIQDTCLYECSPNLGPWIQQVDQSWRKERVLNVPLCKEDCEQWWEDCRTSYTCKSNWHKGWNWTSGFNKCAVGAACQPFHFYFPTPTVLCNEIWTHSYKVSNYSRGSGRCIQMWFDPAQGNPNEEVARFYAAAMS

SMILES	ADCC Reporter Assay pEC50	EC50
CN1C(=O)C[C@H](C(=O)NCCNC(=O)CC[C@H](NC(=O)c2ccc(NCc3cnc4nc(N)[nH]c(=O)c4n3)cc2)C(=O)O)[C@H]1c1cccnc1 [Example 1, N2-(4-(((2-Amino-4-oxo-3,4-dihydropteridin-6-yl)methyl)amino)benzoyl)-N5-(2-((2S,3S)-1-methyl-5-oxo-2-(pyridin-3-yl)pyrrolidine-3-carboxamido)ethyl)-L-glutamine]	4.5 and 4.8	
CN1C(=O)C[C@H](C(=O)NCCO[C@H]2CC[C@H](OCCCC(=O)N[C@H]3CC[C@H](C(=O)NCCNC(=O)CC[C@H](NC(=O)c4ccc(NCc5cnc6nc(N)[nH]c(=O)c6n5)cc4)C(=O)O)CC3)CC2)[C@H]1c1cccnc1 (racemic) [Example 2, N2-(4-(((2-Amino-4-oxo-3,4-dihydropteridin-6-yl)methyl)amino)benzoyl)-N5-(2-((1R,4S)-4-(4-(((1S,4R)-4-(2-((2S,3S)-1-methyl-5-oxo-2-(pyridin-3-yl)pyrrolidine-3-carboxamido)-ethoxy)cyclohexyl)oxy)butanamido)cyclohexane-1-carboxamido)ethyl)-L-glutamine]		6.31e-08 M and 7.94e-08 M
